Reference: patent publication EP2050458A1, “IL24 for inducing hyperproliferative or autoimmune cell death” (INSTITUT NATIONAL DE LA SANTE ET DE LA RECHERCHE MEDICALE …, priority 2007, dated 2009)
Where a SMILES comes first, the peptide text is derived from it. The star is where a group is joined. Cbz = O=C(OCc1ccccc1)*; CH2F = FC*

Key:
Format in all cases: cell-based, human
CLL B-cells = assay: Cell cycle analysis by Propidium Iodide staining and FACS; details: inhibitor added with IL24 to cells cultured overnight with IL2 (IL2+IL24+inhibitor); vs 3.36 ± 1.3% without inhibitor
Procedure: For apoptosis studies, cells were stained either with the Apo 2.7-PE mAb (Beckman-Coulter, Villepinte, France) on ice for 15 min, washed and resuspended on 300 µl of PBS 1X supplemented with 0,1% BSA or with the Annexin V-FITC apoptosis detection kit (Becton Dickinson Biosciences, Le-Pont-de-Claix, France), 1x10^5 cells in 100 µl 1X binding buffer were stained with 5 µl of Annexin V-FITC and 5 µl Propidium Iodide (PI) in the dark for 15 min at room temperature (RT). 400 µl of 1X binding buffer was added before fluorescence-activated cell sorted (FACS) analysis. For cell cycle analysis 1x10^6 cells were washed with cold PBS1X and resuspended in 1ml EtOH 70% and kept on ice for at least 10 min. Cells were then centrifuged and the pellet resuspended in 1ml PBS 1X + RNAse (40 µg) Saint-Quentin Fallavier, France) + Propidium Iodide (18 µl) at room temperature. […]
Fluorescence was measured using a FACScan flow cytometer (BD Biosciences), and data analysis was performed using CellQuest software (BD Biosciences).
It was next determined whether the inhibition of thymidine incorporation by B-cells reflected cell cycle block and/or apoptosis. […] The respective percentages of hypodiploid (apoptotic) cells, and of cells in G0-G1, S and G2-M cell cycle phase, and finally of hyperdiploid cells were evaluated (M1 to M4 populations respectively in figure 3a). […]

P-stat3 = assay: Stat3 phosphorylation (Phospho-Y705 stat3) by western blot and immunostaining in CLL cells
Procedure: For pervanadate experiments, fresh CLL cells were preincubated or not with IL2 overnight, then incubated or not with pervanadate 25 µM during 5 min and stimulated or not with IL24 for 10 min and lysed as previously described. Blots were hybridyzed with anti phospho-Tyr 705-STAT3 (B-7) MAb (Tebu-bio), dehybridyzed and reblotted with anti STAT3 MAb (BD Transduction Laboratories).
Stat3 was strongly and stably phosphorylated in cells incubated overnight with IL2 as evidenced by hybridization with an anti Phospho-Y705 stat3 MAb. In contrast, phospho(P)-stat5 disappeared and total stat5 diminished in the cytosol of cells incubated overnight with IL2, presumably due to dimerization and translocation to the nucleus (Paukku et al. Cytokine Growth Factor Rev. 2004. 6:435-55).
Cells were therefore incubated or not for 5 min with […] pervanadate (PV), an inhibitor of protein tyrosine phosphatase activity (Heffetz and Bushkin H. J Biol Chem. 1990. 265:2896-902) and stimulated 10 min with IL24 on cells preincubated or not with IL2. Cytospin and western blot experiments were performed.
Troglitazone (TG) is an activator of protein-tyrosine phosphatase (PTP)-1B that reduced P-Y705-stat3 and promoted apoptosis in human primary gliomas (Akasaki et al. J Biol Chem. 2005. 281:6165-74). TG was therefore used to determine if it is able to stimulate p53 expression and apoptosis in CLL. […]

CLL cells = assay: CLL cell survival in culture (trypan blue cell count, cell cycle analysis); details: culture for > 30 min
Procedure: • Figure 1. rIL24 protects CLL B-cells from death in culture. • a) CLL cells (2x10^6/ml) were cultured in complete medium (•) or with 100 ng/ml rIL24 (▲) every 7 days and cells counted using trypan blue exclusion. % living cells was calculated in each sample (mean ± SD, n=8). b) Cell scatter, Apoptosis shown by Apo 2.7-PE staining, and cell cycle shown by PI staining from one representative sample (CLL 70) at day 21. M1: hypodiploid (apoptotic cells) M2: cells into G0/G1, M3: cells into S+G2+M, M4: hyperdiploid cells. • Figure 2. rIL24 inhibits thymidine incorporation in activated CLL cells. • a) IL24 was added to IL2-cultured cells as in figure 1, one day before (d-1) at the same time (d0) or one day after (d=1) IL2. b) IL24 was added to CLL cells cultured for 24 h with IL2, IL2+CD40-Ligand or anti-IgM+CD40-Ligand. Tymidine (0.5 mCi/ml) was added at day 3 for 15 h. […] Mean ± SD (n=8) of the M1 to M4 populations calculated as in (a) from CLL cells cultured with IL2 (hatched histogram) or IL2 then IL24 (white histogram). […] RNA was extracted at day 3, reverse-transcribed, amplified and analyzed by real-time PCR. […]

COC(=O)C[C@H](NC(=O)[C@H](C)NC(=O)[C@@H](NC(=O)OCc1ccccc1)C(C)C)C(=O)CF [zvad, ZVAD-fmk] (Cbz-Val-Ala-Asp(OMe)-CH2F)
cells in S/G2/M (CLL B-cells): 4.8 ± 1.77%

pervanadate [PV]
IL24-mediated inhibition of P-Stat3 (P-stat3; 5 min with 25 µM pervanadate, then 10 min IL24): antagonized
toxicity in culture (CLL cells): too toxic

Cc1ccc(C(=O)Cn2c3c(sc2=N)CCCC3)cc1 [Pft-a, Pifithrin]
cells in S/G2/M (CLL B-cells): 6.44 ± 2.2%

Cc1c(C)c2c(c(C)c1O)CCC(C)(COc1ccc(CC3SC(=O)NC3=O)cc1)O2 (centres unmarked) [TG, Troglitazone]
total Stat3 expression (P-stat3; IL2-cultured CLL cells): no effect
